Assay results taken from PubChem BioAssay AID2060348 (Molecular Pharmacology Branch, DTP, NCI, 2025).
Values joined by “and” are separate entries in the source; they are usually repeats but may differ in a detail not shown here. Equal entries are not always repeated. Each block holds one compound with its values, some of them ahead of it.

System: 885724-159-R-J1-PDC spheroids viability
Assay: Anticancer human tumor 885724-159-R-J1-PDC patient-derived pancreatic adenocarcinoma cell line growth inhibition [TAK]
Conditions: spheroids with HUVEC and MSC; for viability, T/C: stronger effect = lower value
Source text: Combinatorial screen of targeted agents with TAK-243 and ipatasertib in multi-cell type tumor spheroids
A high-throughput screen of multi-cell type tumor spheroids was designed to identify active combinations of targeted small molecules and TAK-243 or ipatasertib. Complex spheroids include a stromal component modeled by human endothelial cells (HUVEC) and fibroblasts modeled by human mesenchymal stem cells (MSCs). The concentration ranges selected for each drug and investigational agent were based upon clinically achievable concentrations if the clinical Cmax of the agent was known.
Compounds. The drugs and investigational agents: TAK-243 (785004), ipatasertib (767898), everolimus (733504), selumetinib (741078), bortezomib (756655), trametinib (758246), ixazomib (758254), vemurafenib (761431), dabrafenib (764134), sapanisertib (764658), alpelisib (765974), and copanlisib (816437), were obtained from the National Cancer Institute (NCI) Developmental Therapeutics Program Chemical Repository. The FDA-approved anticancer drug set is available from the NCI Developmental Therapeutics Program. […] The stock solutions were prepared in dimethyl sulfoxide (DMSO, Sigma-Aldrich, St. Louis, MO, cat. D2650) at 800-fold the tested concentration and stored at -70 degrees C prior to their use. All drugs and investigational agents were tested over a range starting from a high concentration at or near the clinical Cmax and decreasing in half-log increments. If the clinical Cmax for an agent had not been determined, the highest concentration tested was 10 microM.
NCI60 Cell Culture. NCI60 cell lines were obtained from the NCI Developmental Therapeutics Program Tumor Repository. For each lot of cells, the Repository performed Applied Biosystems AmpFLSTR Identifiler testing with PCR amplification to confirm consistency with the published Identifier STR profile for each cell line. Cells were kept in continuous culture for no more than 20 passages. The optimal seeding densities for each of the cell lines at each time point assessed were determined prior to performing the concentration response studies. Briefly, the NCI60 human tumor lines were grown as monolayers in RPMI 1640 medium supplemented with 10% FBS and 2 mmol/L L-glutamine.
An additional 2 lines were from the NCI60 cell line panel including melanomas, MALME-3M and SK-MEL-2. Pooled donor human umbilical vein endothelial cells (HUVEC, Lonza, cat. CC-2519) and human mesenchymal stem cells (hMSC, Lonza, cat. PT-2501) were purchased from Lonza (Walkersville, MD).
PDMR cell lines were grown in complete medium (DC medium): Dulbecco's modified Eagle's medium (DMEM)/F12 supplemented with 5% fetal bovine serum (FBS), 2 mM L-glutamine, 100 U/mL penicillin and 100 µg/ml streptomycin, 0.4 µg/ml hydrocortisone, 10 ng/ml epidermal growth factor (EGF) recombinant human protein, 24 µg/mL adenine, and 0.1 mg/mL primocin. During culture from frozen stock vials, PDMR cells were cultured in the same medium containing 10 µM Y-27632 (see Table 3). The PDCs were cultured in complete DMEM/F12 media without 10 microM Y-27632 dihydrochloride for at least two passages prior to the screen. The pooled donor HUVEC and hMSC were cultured in endothelial cell growth medium 2 (PromoCell, Heidelberg, Germany, cat. C-22011) and mesenchymal stem cell growth medium 2 (PromoCell, cat. C-28009), respectively. For all experiments, HUVEC and hMSC were used at passages </=5.
For the pre-screen, cell seeding densities were determined from a titration spanning the range from 5,000 to 313 cells per well. The mct-spheroids including 60% malignant cells, 25% HUVEC and 15% MSC dispensed as a mixture into U-bottom Ultra-Low Attachment 384-well plates (Corning, NY)
High-throughput Drug Combination Screening.
Prior to their inoculation into 384-well plates, malignant cells, HUVEC, and hMSC were removed from T flasks using TrypLE express (Thermo Fisher Scientific, cat. 12605036) and harvested by centrifugation for 5 min at 233 x g. […]
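Note: spheroids exposed to drugs for seven days.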
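Throughout, for viability, T/C: 100% = DMSO vehicle control viability.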

Structure (SMILES): CC(C)NCC(C(=O)N1CCN(c2ncnc3c2C(C)CC3O)CC1)c1ccc(Cl)cc1 (stereo unspecified)
viability, T/C (compound 0.3 µM): 64.1% [middle of 10 runs] | viability, T/C (compound 0.949 µM): 60.5% [middle of 10 runs] | viability, T/C (compound 3 µM): 55.2% [middle of 10 runs] | viability, T/C (compound 9.49 µM): 47.5% [middle of 10 runs] | viability, T/C (compound 30 µM): 32.8% [middle of 10 runs]

Structure (SMILES): Cc1nc(NC(=O)N2CCCC2C(N)=O)sc1-c1ccnc(C(C)(C)C(F)(F)F)c1 (stereo unspecified) + CC(C)NCC(C(=O)N1CCN(c2ncnc3c2C(C)CC3O)CC1)c1ccc(Cl)cc1
IC50 (curve of first compound, second compound 0.3 µM): 154 nM | IC50 (curve of first compound, second compound 0.949 µM): < 31.6 nM | IC50 (curve of first compound, second compound 3 µM): < 31.6 nM | IC50 (curve of first compound, second compound 9.49 µM): < 31.6 nM | IC50 (curve of first compound, second compound 30 µM): < 31.6 nM | viability, T/C (second compound 0.3 µM, first compound 0.0316 µM): 60.9% | viability, T/C (second compound 0.3 µM, first compound 0.1 µM): 46.4% | viability, T/C (second compound 0.3 µM, first compound 0.316 µM): 47.6% | viability, T/C (second compound 0.3 µM, first compound 1 µM): 41.5% | viability, T/C (second compound 0.3 µM, first compound 3.16 µM): 27.5% | viability, T/C (second compound 0.3 µM, first compound 10 µM): 19.4% | viability, T/C (second compound 0.949 µM, first compound 0.0316 µM): 47.9% | viability, T/C (second compound 0.949 µM, first compound 0.1 µM): 44.2% | viability, T/C (second compound 0.949 µM, first compound 0.316 µM): 35.9% | viability, T/C (second compound 0.949 µM, first compound 1 µM): 27.8% | viability, T/C (second compound 0.949 µM, first compound 3.16 µM): 20.8% | viability, T/C (second compound 0.949 µM, first compound 10 µM): 14.3% | viability, T/C (second compound 3 µM, first compound 0.0316 µM): 44.5% | viability, T/C (second compound 3 µM, first compound 0.1 µM): 43.5% | viability, T/C (second compound 3 µM, first compound 0.316 µM): 28.9% | viability, T/C (second compound 3 µM, first compound 1 µM): 21.3% | viability, T/C (second compound 3 µM, first compound 3.16 µM): 19% | viability, T/C (second compound 3 µM, first compound 10 µM): 12.7% | viability, T/C (second compound 9.49 µM, first compound 0.0316 µM): 40% | viability, T/C (second compound 9.49 µM, first compound 0.1 µM): 35.2% | viability, T/C (second compound 9.49 µM, first compound 0.316 µM): 26.9% | viability, T/C (second compound 9.49 µM, first compound 1 µM): 19.4% | viability, T/C (second compound 9.49 µM, first compound 3.16 µM): 14.3% | viability, T/C (second compound 9.49 µM, first compound 10 µM): 9.85% | viability, T/C (second compound 30 µM, first compound 0.0316 µM): 28.8% | viability, T/C (second compound 30 µM, first compound 0.1 µM): 26.4% | viability, T/C (second compound 30 µM, first compound 0.316 µM): 19.6% | viability, T/C (second compound 30 µM, first compound 1 µM): 14.3% | viability, T/C (second compound 30 µM, first compound 3.16 µM): 10.7% | viability, T/C (second compound 30 µM, first compound 10 µM): 6.4%

Structure (SMILES): CC(=O)Nc1cccc(-n2c(=O)n(C3CC3)c(=O)c3c(Nc4ccc(I)cc4F)n(C)c(=O)c(C)c32)c1
viability, T/C (compound 94.9 pM): 89.3% and 117% | viability, T/C (compound 0.0003 µM): 86.7% and 71.2% | viability, T/C (compound 0.000949 µM): 53.9% and 55.8% | viability, T/C (compound 0.003 µM): 37.1% and 40.6% | viability, T/C (compound 0.00949 µM): 26.4% and 30.2% | viability, T/C (compound 0.03 µM): 20.4% | IC50 (curve of compound): 1.38 nM and 1.18 nM

Second part, led by results:

IC50 (curve of compound): 19.1 nM and 18.8 nM
Structure (SMILES): CC(C)CC(NC(=O)CNC(=O)c1cc(Cl)ccc1Cl)B1OC(=O)CC(CC(=O)O)(C(=O)O)O1 (stereo unspecified)
viability, T/C (compound 0.000316 µM): 98.6% and 104% | viability, T/C (compound 0.001 µM): 101% and 96.8% | viability, T/C (compound 0.00316 µM): 99.5% and 103% | viability, T/C (compound 0.01 µM): 89.3% and 91.4% | viability, T/C (compound 0.0316 µM): 19.3% and 15.8% | viability, T/C (compound 0.1 µM): 1.47% and 1.1%

IC50 (curve of compound): 4.63 nM and 4.18 nM
Structure (SMILES): CC(C)CC(NC(=O)C(Cc1ccccc1)NC(=O)c1cnccn1)B(O)O (stereo unspecified)
viability, T/C (compound 31.6 pM): 114% and 102% | viability, T/C (compound 0.0001 µM): 105% and 100% | viability, T/C (compound 0.000316 µM): 104% and 93.8% | viability, T/C (compound 0.001 µM): 99.3% and 87.3% | viability, T/C (compound 0.00316 µM): 74.5% and 67.2% | viability, T/C (compound 0.01 µM): 1.18% and 1.87%
